According to BigSolDB 2.1:

**Q.** What does the source list for `CC#C[C@]1(O)CC[C@H]2[C@@H]3CCC4=CC(=O)CCC4=C3[C@@H](c3ccc(N(C)C)cc3)C[C@@]21C`?
**A.** solubility (mole fraction) (in THF, 273.15 K): 5.16e-05; solubility (mole fraction) (in THF, 278.15 K): 6e-05; solubility (mole fraction) (in THF, 283.15 K): 6.95e-05; solubility (mole fraction) (in THF, 288.15 K): 8.05e-05; solubility (mole fraction) (in THF, 293.15 K): 9.3e-05; solubility (mole fraction) (in THF, 298.15 K): 0.000107; solubility (mole fraction) (in THF, 303.15 K): 0.000123; solubility (mole fraction) (in THF, 308.15 K): 0.000142; solubility (mole fraction) (in THF, 313.15 K): 0.000163; solubility (mole fraction) (in THF, 318.15 K): 0.000188; solubility (mole fraction) (in acetone, 273.15 K): 0.000149; solubility (mole fraction) (in acetone, 278.15 K): 0.000184; solubility (mole fraction) (in acetone, 283.15 K): 0.000228; solubility (mole fraction) (in acetone, 288.15 K): 0.000281; solubility (mole fraction) (in acetone, 293.15 K): 0.000345; solubility (mole fraction) (in acetone, 298.15 K): 0.000422; solubility (mole fraction) (in acetone, 303.15 K): 0.000516; solubility (mole fraction) (in acetone, 308.15 K): 0.000628; solubility (mole fraction) (in acetone, 313.15 K): 0.000762; solubility (mole fraction) (in acetone, 318.15 K): 0.000922; solubility (mole fraction) (in ethanol, 273.15 K): 0.000122; solubility (mole fraction) (in ethanol, 278.15 K): 0.000146; solubility (mole fraction) (in ethanol, 283.15 K): 0.000174; solubility (mole fraction) (in ethanol, 288.15 K): 0.000206; solubility (mole fraction) (in ethanol, 293.15 K): 0.000244; solubility (mole fraction) (in ethanol, 298.15 K): 0.000289; solubility (mole fraction) (in ethanol, 303.15 K): 0.000341; solubility (mole fraction) (in ethanol, 308.15 K): 0.000401; solubility (mole fraction) (in ethanol, 313.15 K): 0.000472; solubility (mole fraction) (in ethanol, 318.15 K): 0.000552; solubility (mole fraction) (in ethyl acetate, 273.15 K): 0.000103; solubility (mole fraction) (in ethyl acetate, 278.15 K): 0.000125; solubility (mole fraction) (in ethyl acetate, 283.15 K): 0.000152; solubility (mole fraction) (in ethyl acetate, 288.15 K): 0.000184; solubility (mole fraction) (in ethyl acetate, 293.15 K): 0.000223; solubility (mole fraction) (in ethyl acetate, 298.15 K): 0.00027; solubility (mole fraction) (in ethyl acetate, 303.15 K): 0.000325; solubility (mole fraction) (in ethyl acetate, 308.15 K): 0.000392; solubility (mole fraction) (in ethyl acetate, 313.15 K): 0.000471; solubility (mole fraction) (in ethyl acetate, 318.15 K): 0.000565; solubility (mole fraction) (in isopropanol, 273.15 K): 7.13e-05; solubility (mole fraction) (in isopropanol, 278.15 K): 0.000109; solubility (mole fraction) (in isopropanol, 283.15 K): 0.000164; solubility (mole fraction) (in isopropanol, 288.15 K): 0.000244; solubility (mole fraction) (in isopropanol, 293.15 K): 0.000358; solubility (mole fraction) (in isopropanol, 298.15 K): 0.000518; solubility (mole fraction) (in isopropanol, 303.15 K): 0.00074; solubility (mole fraction) (in isopropanol, 308.15 K): 0.00105; solubility (mole fraction) (in isopropanol, 313.15 K): 0.00146; solubility (mole fraction) (in isopropanol, 318.15 K): 0.00202; solubility (mole fraction) (in methanol, 273.15 K): 0.000445; solubility (mole fraction) (in methanol, 278.15 K): 0.00058; solubility (mole fraction) (in methanol, 283.15 K): 0.000756; solubility (mole fraction) (in methanol, 288.15 K): 0.000982; solubility (mole fraction) (in methanol, 293.15 K): 0.00128; solubility (mole fraction) (in methanol, 298.15 K): 0.00164; solubility (mole fraction) (in methanol, 303.15 K): 0.0021; solubility (mole fraction) (in methanol, 308.15 K): 0.00266; solubility (mole fraction) (in methanol, 313.15 K): 0.00333; solubility (mole fraction) (in methanol, 318.15 K): 0.00414; solubility (mole fraction) (in n-butanol, 273.15 K): 0.000172; solubility (mole fraction) (in n-butanol, 278.15 K): 0.000213; solubility (mole fraction) (in n-butanol, 283.15 K): 0.000264; solubility (mole fraction) (in n-butanol, 288.15 K): 0.000332; solubility (mole fraction) (in n-butanol, 293.15 K): 0.000412; solubility (mole fraction) (in n-butanol, 298.15 K): 0.000502; solubility (mole fraction) (in n-butanol, 303.15 K): 0.000612; solubility (mole fraction) (in n-butanol, 308.15 K): 0.000733; solubility (mole fraction) (in n-butanol, 313.15 K): 0.000875; solubility (mole fraction) (in n-butanol, 318.15 K): 0.00103; solubility (mole fraction) (in n-propanol, 273.15 K): 0.000138; solubility (mole fraction) (in n-propanol, 278.15 K): 0.000163; solubility (mole fraction) (in n-propanol, 283.15 K): 0.000192; solubility (mole fraction) (in n-propanol, 288.15 K): 0.000226; solubility (mole fraction) (in n-propanol, 293.15 K): 0.000266; solubility (mole fraction) (in n-propanol, 298.15 K): 0.00031; solubility (mole fraction) (in n-propanol, 303.15 K): 0.000362; solubility (mole fraction) (in n-propanol, 308.15 K): 0.000428; solubility (mole fraction) (in n-propanol, 313.15 K): 0.000499; solubility (mole fraction) (in n-propanol, 318.15 K): 0.000582
